Assay [1] concerns HeLa. The experiment in a line: Ionophoric activity in human HeLa cells assessed as intracellular metal accumulation at 4.2 uM cotreated with Fe incubated for 6 hrs by ICP-AES analysis relative to control. The format is functional.
Assay [2] concerns HeLa. The experiment in a line: Ionophoric activity in human HeLa cells assessed as intracellular metal accumulation at 11.3 uM cotreated with Ni incubated for 6 hrs by ICP-AES analysis relative to control. Type of assay: functional.
Assay [3] deals with HeLa. In words: Cytotoxicity against human HeLa cells assessed as reduction in cell viability after 48 hrs by resazurin assay. Type of assay: functional, cell-based.
The test system of assay [4] is HeLa. The experiment in a line: Cytotoxicity against human HeLa cells assessed as reduction in cell viability at 1:1 CuCl2:compound molar ratio after 48 hrs by resazurin assay. The format is functional, cell-based.
The subject of assay [5] is HeLa. The experiment in a line: Ionophoric activity in human HeLa cells assessed as intracellular metal accumulation at 11.3 uM cotreated with Co incubated for 6 hrs by ICP-AES analysis relative to control. Type of assay: functional.
Assay [6] concerns HeLa. In words: Ionophoric activity in human HeLa cells assessed as intracellular metal accumulation at 1.8 uM cotreated with Cu incubated for 6 hrs by ICP-AES analysis relative to control. Type of assay: functional.
The test system of assay [7] is HeLa. The experiment in a line: Growth inhibition of human HeLa cells in presence of copper. Type of assay: functional, cell-based.
For assay [8], the system named is HeLa. In words: Growth inhibition of human HeLa cells. Type of assay: functional, cell-based.
Assay [9] has as its system HeLa. The experiment in a line: Potency index, ratio of CQ IC50 to compound IC50 for human HeLa cells. Type of assay: functional.

The results in this text go back to ChEMBL document CHEMBL4428040, “8-Hydroxyquinolines in medicinal chemistry: A structural perspective” (Eur J Med Chem, 2016).

For the compound `Oc1cccc2ccc(CCc3ccc4cccc(O)c4n3)nc12`, the “fold change (FC)” value is given as 1.8 in the assay with HeLa [1], 2.1 with HeLa [2], 2.1 with HeLa [5] and 13.7 in the assay with HeLa [6]. In addition, the values for the half-inhibitory concentration (IC50) with HeLa [3] and in the assay with HeLa [4] were 23.7 µM and 1.8 µM, respectively.
Turning to `Cc1ccc(OS(=O)(=O)N2CCN(Cc3cc([N+](=O)[O-])c4cccnc4c3O)CC2)cc1`, the half-inhibitory concentration (IC50) came out at 0.06 µM in the assay on HeLa [7] and 0.71 µM in the assay with HeLa [8]. The “Ratio IC50” value in the assay with HeLa [9] is given as 26.
On to `Oc1cccc2cccnc12` [OXYQUINOLINE], for which the IC50 in the assay with HeLa [3] is 13.5 µM.
